Test results: article PMC4959752, “Pharmacokinetics in Wistar Rats of 5-[(4-Carboxybutanoyl)Amino]-2-Hydroxybenzoic Acid: A Novel Synthetic Derivative of 5-Aminosalicylic Acid (5-ASA) with Possible Anti-Inflammatory Activity” (PLoS ONE, 2016)
Where “and” joins values, the source holds several entries; their conditions need not be identical. Identical values can stand only once. Entries after “also recorded” stand apart in the source; their conditions may differ. Like-named read-outs stand apart in the source and are kept apart here.

Key:
[1] = Blood-plasma partitioning (BP ratio); format: in vitro ADME, Wistar rats; settings: Wistar rat blood, 37°C, 4 h
Method: […] The plasma was separated from blood samples, and the concentration of C2 was determined based on a standard curve prepared with blank plasma using the RP-HPLC method. […] The concentration of C2 in blood cells was assumed to be equal to its unbound concentration in the plasma.

MPO = tested on: MPO; set-up: method as in ref 34 = [34]; 34 Gutiérrez Sánchez M , Rosales-Hernández MC , Padilla-Martínez II , Correa-Basurto J , Mendieta-Wejebe JE . In vivo evaluation of two 5-aminosalicylic acid derivatives considered as potential therap; settings: model of inflammation in the mouse ear; cited from earlier work
Wistar rats = tested on: Wistar rats; set-up: method as in ref 37 = [37]; 37 OECD Guidelines for the Testing of Chemicals 425: Acute Oral Toxicity—Up-and-Down-Procedure (UDP). 2008.; settings: acute toxicity; cited from earlier work
[2] = Pharmacokinetic study of C2 in Wistar rats (plasma, HPLC, non-compartmental analysis); format: in vivo; settings: for k el: read-out: Ke (converted); for bioavailability: i.g. 100 mg/kg vs i.v. 50 mg/kg, read-out: F% orally (absolute oral bioavailability)
Excerpt: Prior to the studies (on the day of C2 administration), the Wistar rats (n = 6) were cannulated. For intravenous (i.v.) treatment, a 24 G catheter was placed in the right lateral tail vein (for blood collection), and another catheter was placed in the left (for C2 administration) lateral tail vein of the rat as follows: the animal was placed inside a trap (special acrylic stocks for rats), the rat tail was exposed, and the distal region of the tail was disinfected with 70% ethanol; the tail veins were then dilated using a heating pad (approximately 45°C). An assistant held the tail of the rat while the left lateral vein was located, and a 24 G catheter was then firmly inserted into the posterior third of the caudal vein of the animal, where it was fixed with adhesive tape (for intragastric and intraperitoneal studies, only one catheter was placed on the right for blood collection).
For the intravenous study, a single dose of 50 mg/kg C2 was administered through the 24 G catheter when the rat was inside the trap. For the intragastric (i.g) pharmacokinetic study, a second group of rats (n = 6) received a single dose of 100 mg/kg using a 20 G gavage needle (animals were provided with a standard diet 4 h after dosing). For the intraperitoneal (i.p.) treatment, a third group of rats (n = 6) was injected with 75 mg/kg C2. In all pharmacokinetic studies, approximately 250 μL of blood was collected in heparinized tubes from each rat via the catheter in the right lateral tail vein prior to dosing and 5, 10, 20, 30, 45, 60, 90, 120, 180, 240, 300, 360, 540, 720 and 1440 min after dosing. These blood samples were supplemented with an equal volume of 0.9% sodium chloride solution. Plasma (100 μL) was harvested by centrifuging the blood samples at 8,000 rpm for 15 min, and the plasma was then immediately processed for analysis.
The samples were prepared as follows: briefly, 450 μL of acetonitrile was added to 100 μL of rat plasma, and the mixture was vortexed for 5 min. Subsequently, 450 μL of methanol was added to the sample, which was then vortexed again and centrifuged to precipitate proteins. Subsequently, 10 μL of the supernatant was introduced into the HPLC system. The plasma concentrations of C2 were determined using an RP-HPLC with UV detection method that had previously been validated for pharmacokinetic studies and the complementary assays performed in this work.
The plasma concentration–time data obtained after the i.v., i.g., and i.p. administration of C2 were subjected to a non-compartmental analysis using statistical moment theory. The pharmacokinetic parameters of C2 were calculated using the Kinetica 5.0 software (Adept Scientific Ltd), including the maximum plasma concentration (Cmax), time to reach Cmax (Tmax), elimination half-life (t1/2), area under the plasma concentration-time curve from time zero to the last measurable concentration (AUC0-t), area under the plasma concentration-time curve from time zero to infinity (AUCtot), mean residence time (MRT), clearance (CL), and apparent volume of distribution (Vd).

[3] = Tissue distribution study; format: in vivo, Wistar rats
Method: […] The animals were sacrificed 10, 30, 90, 180 and 360 min after dosing (n = 3 per treatment time). The whole brain, heart, liver, spleen, lung, kidney, stomach, small intestine, colon, testicles and muscle were rapidly dissected, harvested and thoroughly rinsed in ice-cold saline to eliminate blood and other content. All tissues and organs were weighed on an analytical balance and immediately processed for analysis. Each tissue sample was homogenized with saline solution at a 1:3 (wt/v) ratio. The preparation process for analysis was the same as that described above for plasma.

[4] = pharmacokinetic model (Kinetica 5.0), bi-exponential decline of plasma concentration
[5] = pharmacokinetic model (Kinetica 5.0), calculated
[6] = rat, plasma, ip, single dose (100 mg/kg in abstract, 75 mg/kg in methods), Wistar rats
[7] = rat, plasma, iv, single dose 50 mg/kg, Wistar rats
[8] = rat, plasma, i.g. (oral), single dose 100 mg/kg, Wistar rats

What does the source list for O=C(O)CCCC(=O)Nc1ccc(O)c(C(=O)O)c1 [C2, 5-[(4-carboxybutanoyl)amino]-2-hydroxybenzoic acid]?
BP ratio ± SD ([1]; 5 μg/mL): 0.71 and 0.71 ± 0.01; BP ratio ± SD ([1]; 10 μg/mL): 0.6 and 0.60 ± 0.03; effect on catalytic activity of MPO (MPO): inhibited the catalytic activity of MPO; LD50 (Wistar rats): > 2000 mg/kg; detection in the plasma ([2]; 6 h after administration): no longer detected; half-life ([2]; Wistar, rat, plasma, ip, 75 mg/kg, i.p., single dose (100 mg/kg in abstract, 75 mg/kg in methods), Wistar rats, read-out: t1/2 e): 38 ± 3 min; half-life ([2]; Wistar, rat, plasma, iv, 50 mg/kg, i.v., single dose 50 mg/kg, Wistar rats, read-out: t1/2 e (elimination half-life)): ~33 min; Tmax ([2]; Wistar, rat, plasma, iv, 50 mg/kg, single dose 50 mg/kg, Wistar rats): 5 min; half-life ([2]; Wistar, rat, plasma, pharmacokinetic model (Kinetica 5.0), read-out: elimination half-life α (t1/2α)): 18 min; half-life ([2]; Wistar, rat, plasma, pharmacokinetic model (Kinetica 5.0), read-out: elimination half-life β (t1/2β)): 62 min; half-life ([2]; Wistar, rat, plasma, po, 100 mg/kg, i.g. (oral), single dose 100 mg/kg, Wistar rats, read-out: t1/2 e): ~27 min; Cmax ([2]; i.g. (oral), single dose 100 mg/kg, Wistar rats, plasma): 2500 ± 300 ng/mL; Ka ([2]; i.p., single dose (100 mg/kg in abstract, 75 mg/kg in methods), Wistar rats): 1.2 ± 0.2 h⁻¹; Cp^0 ([2]; i.v., single dose 50 mg/kg, Wistar rats): 26900 ± 3700 ng/mL; α [2, 4]: 0.037 min⁻¹; β [2, 4]: 0.011 min⁻¹; K12 [2, 5]: 0.008 min⁻¹; K21 [2, 5]: 0.022 min⁻¹; AUC [2, 6]: 12500 ng·h/mL; MRT [2, 6]: 69 min; Cmax ([2]; rat, plasma, ip, single dose (100 mg/kg in abstract, 75 mg/kg in methods), Wistar rats, read-out: Cmax): 8700 ± 400 ng/mL; k el [2, 6]: 0.00025 s⁻¹; AUC [2, 7]: 20800 ng·h/mL; MRT [2, 7]: 57 min; Vd [2, 7]: 2 ± 0.2 L/kg; clearance [2, 7]: 13 ± 3 mL/min; k el [2, 7]: 0.000361 s⁻¹; bioavailability ([2]; rat, plasma, oral, Wistar rats): ~13%; bioavailability ([2]; rat, plasma, po, Wistar rats): 13%; Cmax ([2]; rat, plasma, po, intragastric administration, 100 mg/kg, Wistar rats (abstract), read-out: Cmax): 2500 ng/mL; AUC [2, 8]: 2620 ng·h/mL; MRT [2, 8]: 49 min; k el [2, 8]: 0.0005 s⁻¹; crossing of blood-brain barrier / hemato-testicular barrier (presence in brain and testicles) ([3]; Wistar rats, i.g. and i.p.): effectively crossed the blood-brain barrier and hemato-testicular barrier; also recorded: able to cross the blood brain barrier; tissue distribution ([3]; i.g. and i.p. routes, before the 2 h time point): widely distributed in all examined tissues; tissue distribution ([3]; single intragastric or oral dose (100 mg/kg), Wistar rats, 100 mg/kg): distributed and detected in all examined tissues (including the brain and colon); also recorded: well distributed in all tissues
